{"source": "patent US20100004267A1", "about": "“LIQUID PREPARATION” (ASUBIO PHARMA CO., LTD., priority 2006, published 2010)", "key": {"[1]": {"experiment": "Stability test based on difference of pH buffer, 6 months (Test example 4)", "format": "physicochemical", "set-up": "key to Insoluble materials: ◯ means absence of insoluble matters; X: × means presence of insoluble matters", "experimental": "According to experimental formulations and target pH shown in Table 4 below, liquid preparations were prepared in the following manner.\nAfter filtering this solution under reduced pressure, 20 mL of this solution was filled into a brown ampule subjected to inner wall treatment by SiO2 glass film (Silicoat ampule; brown 20 mL-volume; available from FUJI GLASS CO., LTD.), and then the ampule was sealed. Using high-pressure steam sterilizer (autoclave), the ampule was autoclaved in a setting condition: 121° C./24 minutes.\nThe samples were stored at 5° C., 25° C./60% relative humidity (RH), […] were evaluated in time series until a lapse of 6 months, after evaluating presence/absence of insoluble foreign matters after autoclave sterilization. For evaluation of insoluble foreign matters, an appearance checker was used and observation was conducted under 1,000 Lux. […]\nLikewise the foregoing (1) liquid preparation with acetic acid buffer system (for pH adjustment, 1 mol/L or 0.1 mol/L hydrochloric acid was used), each sample was prepared according to the experimental formulations and target pH shown in Table 4 below, and each sample was stored at 5° C., 25° C./60% relative humidity (RH), […] were evaluated in time-series until a lapse of 6 months, after evaluating presence/absence of insoluble foreign matters after autoclave sterilization. […]"}, "[2]": {"experiment": "Examination of solubilizing agent: solubility of SUN N8075 (Test example 1)", "format": "physicochemical", "experimental": "8 mg/mL aqueous solution of SUN N8075 was prepared. On the other hand, for each solubilizing agent, an aqueous solution having approximately 0.4% of solubilizing agent was prepared.\n10 mL of SUN N8075 aqueous solution and 10 mL of solution of each solubilizing agent were mixed to give Mixture A, and Mixture A was filtered through a filter of 0.22 μm.\n6.24 g of sodium dihydrogen phosphate and 16.4 g of sodium chloride were weighed and water was added to make the volume precisely 1,000 mL. To this solution, 1 mol/L sodium hydroxide test solution was added dropwise and the pH value was adjusted to 7.4, which was named Mixture B.\nMixture of each 2.5 mL of Mixture A and Mixture B was provided as a test solution (in each test solution, the concentration of SUN N8075 corresponds to 2 mg/mL, and the concentration of solubilizing agent corresponds to 0.1%).\nAs for a solubilizing agent of which degree of improving solubility of SUN N8075 was high, tests with concentrations of the added solubilizing agent varied were additionally executed in accordance with the method as described above."}, "[3]": {"conditions": "acetic acid/sodium acetate buffer, Captisol 10.0%, pH at preparation 3.8 (Table 4 no. 3), 40° C./75% RH/6 months"}, "[4]": {"conditions": "acetic acid/sodium acetate buffer, Captisol 10.0%, pH at preparation 4.2 (Table 4 no. 4), 40° C./75% RH/6 months"}, "[5]": {"conditions": "glycine buffer, Captisol 7.5%, pH at preparation 3.8 (Table 4 no. 5), 40° C./75% RH/6 months"}, "[6]": {"conditions": "glycine buffer, Captisol 7.5%, pH at preparation 4.2 (Table 4 no. 6), 40° C./75% RH/6 months"}, "[7]": {"conditions": "glycine buffer, Captisol 10.0%, pH at preparation 3.8 (Table 4 no. 7), 40° C./75% RH/6 months"}, "[8]": {"conditions": "glycine buffer, Captisol 10.0%, pH at preparation 4.2 (Table 4 no. 8), 40° C./75% RH/6 months"}}}
{"smiles": "Cc1cc(OC[C@@H](O)CN2CCN(c3ccc(Cc4ccc(F)cc4)cc3)CC2)c(C)c(C)c1N", "note": "[SUN N8075, (2S)-1-(4-amino-2,3,5-trimethylphenoxy)-3-{4-[4-(4-fluorobenzyl)phenyl]-1-piperazinyl}-2-propanol dimethane sulfonate]", "values": [{"measurement": "Insoluble materials", "setting": "[1]; acetic acid/sodium acetate buffer, Captisol 7.5%, pH at preparation 3.8 (Table 4 no. 1), 5° C./6 months", "value": "◯"}, {"measurement": "Storage period at which generation of insoluble matters was observed", "setting": "[1]; acetic acid/sodium acetate buffer, Captisol 7.5%, pH at preparation 3.8 (Table 4 no. 1), 25° C./60% RH", "value": "(6 months)"}, {"measurement": "Insoluble materials", "setting": "[1]; acetic acid/sodium acetate buffer, Captisol 7.5%, pH at preparation 3.8 (Table 4 no. 1), 25° C./60% RH/6 months", "value": "X"}, {"measurement": "Insoluble materials", "setting": "[1]; acetic acid/sodium acetate buffer, Captisol 7.5%, pH at preparation 3.8 (Table 4 no. 1), 40° C./60% RH/6 months", "value": "◯"}, {"measurement": "pH", "setting": "[1]; acetic acid/sodium acetate buffer, Captisol 7.5%, pH at preparation 3.8 (Table 4 no. 1), 40° C./75% RH/6 months", "value": 2.74}, {"measurement": "Insoluble materials", "setting": "[1]; acetic acid/sodium acetate buffer, Captisol 7.5%, pH at preparation 3.8 (Table 4 no. 1), just after autoclave sterilization", "value": "◯"}, {"measurement": "Insoluble materials", "setting": "[1]; acetic acid/sodium acetate buffer, Captisol 7.5%, pH at preparation 4.2 (Table 4 no. 2), 5° C./6 months", "value": "◯"}, {"measurement": "Insoluble materials", "setting": "[1]; acetic acid/sodium acetate buffer, Captisol 7.5%, pH at preparation 4.2 (Table 4 no. 2), 25° C./60% RH/6 months", "value": "◯"}, {"measurement": "Storage period at which generation of insoluble matters was observed", "setting": "[1]; acetic acid/sodium acetate buffer, Captisol 7.5%, pH at preparation 4.2 (Table 4 no. 2), 40° C./60% RH", "value": "(3 months)"}, {"measurement": "Insoluble materials", "setting": "[1]; acetic acid/sodium acetate buffer, Captisol 7.5%, pH at preparation 4.2 (Table 4 no. 2), 40° C./60% RH/6 months", "value": "X"}, {"measurement": "pH", "setting": "[1]; acetic acid/sodium acetate buffer, Captisol 7.5%, pH at preparation 4.2 (Table 4 no. 2), 40° C./75% RH/6 months", "value": 2.96}, {"measurement": "Insoluble materials", "setting": "[1]; acetic acid/sodium acetate buffer, Captisol 7.5%, pH at preparation 4.2 (Table 4 no. 2), just after autoclave sterilization", "value": "◯"}, {"measurement": "Insoluble materials", "setting": "[1]; acetic acid/sodium acetate buffer, Captisol 10.0%, pH at preparation 3.8 (Table 4 no. 3), 5° C./6 months", "value": "◯"}, {"measurement": "Insoluble materials", "setting": "[1]; acetic acid/sodium acetate buffer, Captisol 10.0%, pH at preparation 3.8 (Table 4 no. 3), 25° C./60% RH/6 months", "value": "◯"}, {"measurement": "Insoluble materials", "setting": "[1]; [3]", "value": "◯"}, {"measurement": "pH", "setting": "[1]; [3]", "value": 2.60}, {"measurement": "Insoluble materials", "setting": "[1]; acetic acid/sodium acetate buffer, Captisol 10.0%, pH at preparation 3.8 (Table 4 no. 3), just after autoclave sterilization", "value": "◯"}, {"measurement": "Insoluble materials", "setting": "[1]; acetic acid/sodium acetate buffer, Captisol 10.0%, pH at preparation 4.2 (Table 4 no. 4), 5° C./6 months", "value": "◯"}, {"measurement": "Insoluble materials", "setting": "[1]; acetic acid/sodium acetate buffer, Captisol 10.0%, pH at preparation 4.2 (Table 4 no. 4), 25° C./60% RH/6 months", "value": "◯"}, {"measurement": "Insoluble materials", "setting": "[1]; [4]", "value": "◯"}, {"measurement": "pH", "setting": "[1]; [4]", "value": 2.82}, {"measurement": "Insoluble materials", "setting": "[1]; acetic acid/sodium acetate buffer, Captisol 10.0%, pH at preparation 4.2 (Table 4 no. 4), just after autoclave sterilization", "value": "◯"}, {"measurement": "Insoluble materials", "setting": "[1]; glycine buffer, Captisol 7.5%, pH at preparation 3.8 (Table 4 no. 5), 5° C./6 months", "value": "◯"}, {"measurement": "Insoluble materials", "setting": "[1]; glycine buffer, Captisol 7.5%, pH at preparation 3.8 (Table 4 no. 5), 25° C./60% RH/6 months", "value": "◯"}, {"measurement": "Insoluble materials", "setting": "[1]; [5]", "value": "◯"}, {"measurement": "pH", "setting": "[1]; [5]", "value": 3.46}, {"measurement": "Insoluble materials", "setting": "[1]; glycine buffer, Captisol 7.5%, pH at preparation 3.8 (Table 4 no. 5), just after autoclave sterilization", "value": "◯"}, {"measurement": "Insoluble materials", "setting": "[1]; glycine buffer, Captisol 7.5%, pH at preparation 4.2 (Table 4 no. 6), 5° C./6 months", "value": "◯"}, {"measurement": "Insoluble materials", "setting": "[1]; glycine buffer, Captisol 7.5%, pH at preparation 4.2 (Table 4 no. 6), 25° C./60% RH/6 months", "value": "◯"}, {"measurement": "Insoluble materials", "setting": "[1]; [6]", "value": "◯"}, {"measurement": "pH", "setting": "[1]; [6]", "value": 3.73}, {"measurement": "Insoluble materials", "setting": "[1]; glycine buffer, Captisol 7.5%, pH at preparation 4.2 (Table 4 no. 6), just after autoclave sterilization", "value": "◯"}, {"measurement": "Insoluble materials", "setting": "[1]; glycine buffer, Captisol 10.0%, pH at preparation 3.8 (Table 4 no. 7), 5° C./6 months", "value": "◯"}, {"measurement": "Insoluble materials", "setting": "[1]; glycine buffer, Captisol 10.0%, pH at preparation 3.8 (Table 4 no. 7), 25° C./60% RH/6 months", "value": "◯"}, {"measurement": "Insoluble materials", "setting": "[1]; [7]", "value": "◯"}, {"measurement": "pH", "setting": "[1]; [7]", "value": 3.49}, {"measurement": "Insoluble materials", "setting": "[1]; glycine buffer, Captisol 10.0%, pH at preparation 3.8 (Table 4 no. 7), just after autoclave sterilization", "value": "◯"}, {"measurement": "Insoluble materials", "setting": "[1]; glycine buffer, Captisol 10.0%, pH at preparation 4.2 (Table 4 no. 8), 5° C./6 months", "value": "◯"}, {"measurement": "Insoluble materials", "setting": "[1]; glycine buffer, Captisol 10.0%, pH at preparation 4.2 (Table 4 no. 8), 25° C./60% RH/6 months", "value": "◯"}, {"measurement": "Insoluble materials", "setting": "[1]; [8]", "value": "◯"}, {"measurement": "pH", "setting": "[1]; [8]", "value": 3.74}, {"measurement": "Insoluble materials", "setting": "[1]; glycine buffer, Captisol 10.0%, pH at preparation 4.2 (Table 4 no. 8), just after autoclave sterilization", "value": "◯"}, {"measurement": "Appearance of solution", "setting": "[2]; Glycerin 0.1%, pH 6.8", "value": "colorless and clear"}, {"measurement": "Appearance of solution", "setting": "[2]; HCO-60 0.1%, pH 6.8", "value": "colorless and clear"}, {"measurement": "Appearance of solution", "setting": "[2]; HCO-60 0.2%, pH 6.9", "value": "colorless and clear"}, {"measurement": "Appearance of solution", "setting": "[2]; HCO-60 0.5%, pH 6.8", "value": "colorless and clear"}, {"measurement": "Appearance of solution", "setting": "[2]; Human serum albumin 0.1%, pH 6.8", "value": "colorless and clear"}, {"measurement": "Appearance of solution", "setting": "[2]; Macrogol 4000 0.1%, pH 6.8", "value": "colorless and clear"}]}
